Data on seven compounds can be found in patent US8202892B2, “Advanced glycation end products as active ingredients” (Henkel AG & Co. KGaA, priority 2007, dated 2012).

What all share (format): cell-based
The subject of assay [1] is IGFBP3. Description: Relative gene expression in reconstructed dermal papillae: IGFBP3. As to conditions: 24 hours, untreated medium = 1.00. As to the method:
(§1) Reconstructed dermal papillae as described in European patent 1 455 854 were systemically treated for 24 hours with each of the test substances listed in Table 7 in the cited concentrations. The relative gene expression profile was determined for the markers HGF and KGF (important markers of the anagen phase of the hair cycle) and TGF-beta 1, TGF-beta 2 and IGFBP3 (important markers of the catagen phase of the hair cycle). Expression for incubation with the untreated medium served as the reference; values presented in the Table illustrate the differential gene expression. A differential gene expression that is 1.66 times or greater than the absolute numerical value of the control gene expression is regarded as significant.

Assay [2] concerns HGF. Description: Relative gene expression in reconstructed dermal papillae: HGF. As to conditions: 24 hours, untreated medium = 1.00, 1.66 times or greater significant. How it is done: as §1
In assay [3] the test system is TGF-beta 1. Description: Relative gene expression in reconstructed dermal papillae: TGF-beta 1. Particulars: 24 hours, untreated medium = 1.00. How it is done: as §1
The test system of assay [4] is TGF-beta 2. Description: Relative gene expression in reconstructed dermal papillae: TGF-beta 2. Particulars: 24 hours, untreated medium = 1.00. As to the method: as §1
For assay [5], the system named is KGF. Description: Relative gene expression in reconstructed dermal papillae: KGF. Particulars: 24 hours, untreated medium = 1.00. As to the method:
as §1

The subject of assay [6] is markers of anagen and catagen phase of the hair cycle. Description: Relative gene expression profile of the markers of the hair cycle (statements in words). Particulars: 0.1 wt. %. How it is done:
as §1

For assay [7], the system named is IL-8. The assay is described as follows: Basal release of IL-8 from HaCaT keratinocytes, ELISA. As to conditions: 0.5%. As to the method: Measurement of the basal release of IL-8 provides information on the effects of substances on inflammation reactions. IL-8 is a pro-inflammatory cytokine, which plays a central role in the inflammation cascade of the skin. A reduction of the basal release of IL-8 points to potential inflammation inhibiting effects of the studied substances. In order to determine the release of the IL-8, HaCaT keratinocytes were incubated in Hanks medium with glutamax, 5% FCS and antibiotics in 24 well culture vessels. On day 2 after seeding, cells were incubated with the test substances in a concentration of 0.5%. After treatment for 15-20 h the cell culture supernatant was removed and the amount of released IL-8 was quantified by ELISA. The Quantikine IL-8 from RnD-Systems (Wiesbaden, Germany) was used for these analyses. Values illustrated in Table 5 are relative values with respect to the untreated controls from 4 independent experiments.
Background: ELISA stands for enzyme-linked immunosorbent assay.

Assay [8] concerns Keratinocyte Growth Factor (KGF). Description: KGF release from reconstructed hair follicle models, ELISA. An excerpt:
(§2) Both the Hepatocyte Growth Factor (HGF) and Keratinocyte Growth Factor (KGF) are important regulators of the hair cycle. A change in the availability for the substances that regulate the hair cycle in comparison with the untreated controls should be assumed. The release of HGF and KGF can be quantified with the help of commercially available ELISA kits (Quantikine, RnD-Systems, Wiesbaden, Germany). For this, reconstructed hair follicle models, which are described in the European patent 1 455 854, were incubated with the test substances for 72 hours and the concentration of the growth factors in the medium was determined in the described manner. In order to be able to rule out that the described effects could have been caused by unreacted sugar (glucose or lactose), the respective individual components were tested at the highest possible concentration. The quantities of the untreated controls were set to 100% and the quantities of the treated samples were relative to these. The standard deviations were calculated from the three biological approaches.

In assay [9] the test system is fibroblasts. Description: Proliferation of fibroblasts by CyQuant. Particulars: for Proliferation MW: untreated control = 100%. From the text:
Determination of the proliferation of the cultivated cells provides information on the status of the cell division of the treated cells. Both cell division stimulating and cell division inhibiting substances can be defined with this analysis. An outstanding feature during the cell division is the duplication of the DNA. During the new synthesis, nucleotides are built into the newly formed DNA strand. The proliferation can be measured by offering a non-natural nucleotide derivative (bromo deoxy uridine, BrdU) to the cells for the new synthesis; the BrdU can be subsequently detected with specific antibodies. The amount of newly synthesized DNA can be quantified fluorimetrically and provides proportional information on the degree of the cell division process. Proliferation was determined by setting the untreated control to 100% and the measured values of the samples treated with the substances were in reference to that figure. For a relative proliferation of less than 80% the substance effect is said to be inhibitive, for greater than or equal to 120% the substance effect is considered to be stimulative. The CyQuant Assay Cell Proliferation Assay from Molecular Probes was used for this test according to manufacturer's directions.

The test system of assay [10] is organo-typical cell cultures (reconstructed dermal papillae). Description: ATP production, ATPLite-M luciferase assay. Particulars: dermal papillae cells. How it is done: ATP determinations were made using the ATPLite™-M Assays (from Packard). The test principle of this assay is based on the fact that the lucerifase from Photinus pyralis catalyzes a reaction in which, in the presence of ATP, D-luciferin is converted to oxyluciferin. Green light is emitted in this reaction and can be measured with an illuminometer. The emitted bioluminescence light is proportional to the amount of ATP present. Determination of ATP activity is carried out in organo-typical cell cultures (reconstructed dermal papillae according to EP 1 455 854). Treatment with the substance mixture is carried out for 24 hours against an untreated control. The cells were then lysed with 100 μl/cavity of a lyse buffer contained in a test kit for 5 minutes on a shaker. The cells were then incubated an additional 5 minutes with 100 μl/cavity of the supplied substrate solution on the shaker, and the reaction mixture was subsequently transferred into a black microtitre plate. Luminescence was measured after an incubation time of 10 minutes in the dark.

In assay [11] the test system is Hepatocyte Growth Factor (HGF). The assay is described as follows: HGF release from reconstructed hair follicle models, ELISA.
Excerpt: as §2

The test system of assay [12] is fibroblasts. Description: Relative vitality (cell activity) of cultivated fibroblasts, redox dye WST-1. As to conditions: untreated control = 100%. How it is done:
Vitality of the cultivated cells was determined by means of redox dyes. These dyes penetrate into the cells and are reduced by electron capture at the external mitochondrial membrane. This reduction requires a color change that is subsequently photometrically analyzed. Vitality was quantified by setting the untreated control to 100% and the measured values of the samples treated with the substances were in reference to that figure. Cell damaging means a relative vitality of less than 80%, and cell activating means greater than or equal to 120%. Cell Proliferation Reagent Wst-1 (Roche Applied Science, Mannheim, Germany) was used for this test.
For orientation: Tetrazolium dyes change colour on reduction, which living cells bring about.

Setting [13] is: 0.40% w/v, 72 hours, untreated = 100%.
Where [14] appears, read: reconstructed hair follicle model.

`Cc1occc(=O)c1O` [Maltol, 3-hydroxy-2-methyl-4H-pyran-4-one]: the figures for the “Differential gene expression IGFBP3 (Catagen)” value in assay [1] (0.01% (wt. %)) and in [1] (0.025% (wt. %)) were −1.69 and −3.63, respectively. In addition, the “Differential gene expression HGF (Anagen)” value in assay [2] (0.01% (wt. %)) was −1.23; in assay [2] (0.025% (wt. %)) it was 1.07. Besides, the “Differential gene expression TGFβ1 (Catagen)” value was −1.28 in assay [3] (0.01% (wt. %)) and −1.20 in assay [3] (0.025% (wt. %)). Further, the “Differential gene expression TGFβ2 (Catagen)” value in [4] (0.01% (wt. %)) is −1.86; in assay [4] (0.025% (wt. %)), −3.21. For the same compound, the “Differential gene expression KGF (Anagen)” value in [5] (0.01% (wt. %)) was −1.87; in assay [5] (0.025% (wt. %)), −3.02.

For the compound `Cc1c(O)c(=O)ccn1CCCC[C@H](N)C(=O)O` [Maltosine (15), maltosine], in assay [1] (0.1% (wt. %)), the “Differential gene expression IGFBP3 (Catagen)” value is 7.55. In addition, the “Differential gene expression HGF (Anagen)” value in [2] (0.1% (wt. %)) was −2.09. For the same compound, the “Differential gene expression TGFβ1 (Catagen)” value in [3] (0.1% (wt. %)) is 3.39. Further, in assay [6], the “Gene expression of markers of catagen (in words)” value is “simultaneously increased gene expression of markers of catagen”. Further, the “Differential gene expression TGFβ2 (Catagen)” value in assay [4] (0.1% (wt. %)) is −2.24. Besides, in [5] (0.1% (wt. %)), the “Differential gene expression KGF (Anagen)” value was −1.45.

In the case of `CC1NC(NCCC[C@H](N)C(=O)O)=NC1=O` (stereo partly drawn) [Ornithinoimidazolinone (16), ornithinoimidazolinone], the “Differential gene expression IGFBP3 (Catagen)” value in [1] (0.1% (wt. %)) is −1.60. Besides, in assay [2] (0.1% (wt. %)), the “Differential gene expression HGF (Anagen)” value was −3.30. In addition, the “Differential gene expression TGFβ1 (Catagen)” value in assay [3] (0.1% (wt. %)) amounted to 1.08. In assay [4] (0.1% (wt. %)), the “Differential gene expression TGFβ2 (Catagen)” value is reported as −1.66. In addition, the “Differential gene expression KGF (Anagen)” value in assay [5] (0.1% (wt. %)) is −1.25.

`O=CC(=O)C[C@H](O)[C@H](O)CO` [3-Desoxyglucosulose (18), 3-desoxyglucosulose]: the “Differential gene expression IGFBP3 (Catagen)” value in assay [1] (0.01% (wt. %)) was −1.20; in assay [1] (0.1% (wt. %)), −2.12. For the same compound, the “Differential gene expression HGF (Anagen)” value in [2] (0.01% (wt. %)) is given as −2.09; in [2] (0.1% (wt. %)) it was −1.78. The “Differential gene expression TGFβ1 (Catagen)” value in [3] (0.01% (wt. %)) was 1.02; in assay [3] (0.1% (wt. %)), −1.27. Also, the “Differential gene expression TGFβ2 (Catagen)” value in [4] (0.01% (wt. %)) was −1.67; in assay [4] (0.1% (wt. %)), −1.54. In addition, the figures for the “Differential gene expression KGF (Anagen)” value in assay [5] (0.01% (wt. %)) and in assay [5] (0.1% (wt. %)) were −1.33 and −1.93, respectively.

As to `N[C@@H](CCCCNCC(=O)O)C(=O)O` [Carboxymethyllysine (13), N-ε-carboxymethyllysine], the “Differential gene expression IGFBP3 (Catagen)” value in assay [1] (0.1% (wt. %)) came to 1.98. In assay [2] (0.1% (wt. %)), the “Differential gene expression HGF (Anagen)” value is given as −1.77. In assay [3] (0.1% (wt. %)), the “Differential gene expression TGFβ1 (Catagen)” value came out at 1.35. Moreover, the “Differential gene expression TGFβ2 (Catagen)” value in assay [4] (0.1% (wt. %)) is given as −1.07. The “Differential gene expression KGF (Anagen)” value in assay [5] (0.1% (wt. %)) turned out to be 1.24.

In the case of `N[C@@H](CCCCNCC(=O)[C@@H](O)[C@H](O)[C@H](O)CO)C(=O)O` [Fructoselysine (12), N-ε-fructosyllysine], the figures for the “Differential gene expression IGFBP3 (Catagen)” value in [1] (0.01% (wt. %)) and in assay [1] (0.1% (wt. %)) were −1.44 and −1.83, respectively. Also, the “Differential gene expression HGF (Anagen)” value in [2] (0.01% (wt. %)) is listed as −1.92; in [2] (0.1% (wt. %)) it was −1.69. In addition, the “Differential gene expression TGFβ1 (Catagen)” value in [3] (0.01% (wt. %)) was 1.04; in [3] (0.1% (wt. %)), −1.10. Also, the “Differential gene expression TGFβ2 (Catagen)” value in assay [4] (0.01% (wt. %)) and in [4] (0.1% (wt. %)) was −2.40 throughout. The “Differential gene expression KGF (Anagen)” value in [5] (0.01% (wt. %)) is listed as −1.96; in assay [5] (0.1% (wt. %)), −2.49.

Turning to `OC[C@H]1O[C@@H](O[C@H]2[C@H](O)[C@@H](O)C(O)O[C@@H]2CO)[C@H](O)[C@@H](O)[C@H]1O` (stereo partly drawn) [Lactose, D-(+)-lactose], the “Effect on basal release of IL-8 (in words)” value in assay [7] was “did not lead to a significant change”. Besides, the “KGF release MW %” value in [8] (setting [13]) is reported as 101.2%. The “Effect on KGF release (in words)” value in assay [8] (setting [14]) is “distinct effect due to treatment with sugars (lactose and glucose) could not be established”. For the same compound, the “Effect on cell division activity of fibroblasts (in words)” value in [9] was “No effect could be detected”. The “Proliferation MW” value was 107.2% in assay [9] (250 μg/ml); 90.4% in [9] (500 μg/ml); 111.7% in [9] (1000 μg/ml); 107.6% in assay [9] (2000 μg/ml); 77.5% in assay [9] (4000 μg/ml). In assay [10], the “Effect on synthesis rate of ATP (in words)” value is “did not lead at any time and at any concentration to a change”. Further, in [11] (setting [13]), the “HGF release MW %” value amounted to 65.3%. In assay [11] (setting [14]), the “Effect on release of HGF (in words)” value is “reduced release of HGF”. Moreover, the “Vitality MW” value in [12] (250 μg/ml) was 97.5%; in assay [12] (500 μg/ml), 98.6%; in assay [12] (1000 μg/ml), 102.0%; in assay [12] (2000 μg/ml) it was 116.4%; in assay [12] (4000 μg/ml), 119.8%.
